The text below walks through data of patent US20220289794A1, “SYNTHETIC ANTIMICROBIAL PEPTIDES” (priority 2019, published 2022).

Assay [1] concerns P. aeruginosa (ATCC 10145). Kind of assay: Broad-spectrum activity against Gram-Negative bacteria (MIC). As to conditions: Table 16, Gram-negative panel. It is filed as cell-based.
Assay [2] concerns Streptococcus pneumoniae ATCC 49619. To be noted: S. pneumoniae ATCC 49619.
Assay [3] relates to A. baumannii (ATCC BAA-1605). The experiment in a line: Broad-spectrum activity against Gram-Negative bacteria (MIC). To be noted: Table 16, Gram-negative panel. The assay is classed as cell-based.
A further assay has as its system E. coli (ATCC BAA-2452). The assay is described as above. The assay is classed as cell-based. As to conditions: Table 16, Gram-negative panel.
The test system of assay [4] is Klebsiella pneumoniae (ATCC BAA-1705). To be noted: Table 16, Gram-negative panel.
Another assay concerns S. aureus ATCC 29213. As to conditions: S. aureus ATCC 29213.
In assay [5] the test system is Enterococcus faecalis ATCC 51575. As to conditions: E. faecalis ATCC 51575.
Assay [6] has as its system Escherichia coli (ATCC 25922). To be noted: E. coli ATCC 25922.
Assay [7] relates to Streptococcus pneumoniae ATCC 51938. To be noted: S. pneumoniae ATCC 51938.
Assay [8] deals with Methicillin-resistant Staphylococcus aureus MRSA (ATCC BAA-1556). As to conditions: MRSA ATCC BAA-1556.
The next assay concerns B. cereus (ATCC-13061). Kind of assay: Broad-spectrum activity against Gram-Positive bacteria (MIC). It is filed as cell-based. Also on record: unit not given here.
The next assay relates to B. subtilis (ATCC-6633). Described as above. The assay is classed as cell-based. Also on record: unit not given here.
For assay [9], the system named is Klebsiella pneumoniae ATCC 13883. As to conditions: Table 16, Gram-negative panel.
The subject of assay [10] is Enterococcus faecium ATCC 700221. To be noted: E. faecium ATCC 700221.
Assay [11] has as its system Pseudomonas aeruginosa (ATCC 27883). As to conditions: P. aeruginosa ATCC 27883.
Assay [12] concerns Enterococcus faecalis ATCC 29212. As to conditions: E. faecalis ATCC 29212.
For assay [13], the system named is P. aeruginosa (ATCC BAA-1744). The experiment in a line: Broad-spectrum activity against Gram-Negative bacteria (MIC). It is filed as cell-based. To be noted: Table 16, Gram-negative panel.
The subject of assay [14] is Enterococcus faecium ATCC 27270. To be noted: E. faecium ATCC 27270.

Consider “c[Arg-arg-Arg-Arg-Dip-Trp-Dip] [IFX-093]”, for which the MIC P. aeruginosa (ATCC 10145) in [1] was 25 µg/mL. Further, the “Broad-spectrum activity S. pneumoniae (ATCC 49619)” value in [2] came out at 50. Moreover, the MIC A. baumannii (ATCC BAA-1605) in [3] came to 12.5 µg/mL. In the assay on E. coli (ATCC BAA-2452), this substance registered an MIC E. coli (ATCC BAA-2452) of 6.2 µg/mL. For the same substance, the MIC K. pneumonia (ATCC BAA-1705) in [4] was 12.5 µg/mL. The “MIC S. aureus ATCC 29213” value in the assay on S. aureus ATCC 29213 was 3.1 µg/mL. Moreover, in assay [5], the “Broad-spectrum activity E. faecalis (ATCC 51575)” value is on record as 12.5. Besides, the “MIC E. coli ATCC 25922” value in [6] was 12.5 µg/mL. Moreover, the “Broad-spectrum activity S. pneumoniae (ATCC 51938)” value in assay [7] came to 25. Also, the “MIC MRSA ATCC BAA-1556” value in [8] turned out to be 3.1 µg/mL. In addition, in the assay on B. cereus (ATCC-13061), the “Broad-spectrum activity B. cereus (ATCC-13061)” value was 6.2. Also, in the assay on B. subtilis (ATCC-6633), the “Broad-spectrum activity B. subtilis (ATCC-6633)” value stood at 1.5. This substance also displayed an MIC K. pneumonia (ATCC 13883) in assay [9] of 50 µg/mL. Also, the “Broad-spectrum activity E. faecium (ATCC 700221)” value in assay [10] was determined as 6.2. The “MIC P. aeruginosa ATCC 27883” value in assay [11] turned out to be 12.5 µg/mL. The “Broad-spectrum activity E. faecalis (ATCC 29212)” value in assay [12] came to 12.5. The MIC P. aeruginosa (ATCC BAA-1744) in [13] came out at 25 µg/mL. Moreover, the “Broad-spectrum activity E. faecium (ATCC 27270)” value in [14] was 6.2.
Consider “c[arg-arg-Arg-Arg-NaI-trp-NaI] [IFX-140]”, for which, in assay [1], the MIC P. aeruginosa (ATCC 10145) amounted to 25 µg/mL. Besides, the “Broad-spectrum activity S. pneumoniae (ATCC 49619)” value in assay [2] worked out at 25. For the same substance, in assay [3], the MIC A. baumannii (ATCC BAA-1605) is 12.5 µg/mL. In the assay with E. coli (ATCC BAA-2452), the MIC E. coli (ATCC BAA-2452) is 25 µg/mL. Moreover, the MIC K. pneumonia (ATCC BAA-1705) in assay [4] was > 50 µg/mL. Moreover, in the assay on S. aureus ATCC 29213, the “MIC S. aureus ATCC 29213” value amounted to 3.1 µg/mL. In addition, in [5], the “Broad-spectrum activity E. faecalis (ATCC 51575)” value was determined as 6.2. In addition, in assay [6], the “MIC E. coli ATCC 25922” value is 32 µg/mL. The “Broad-spectrum activity S. pneumoniae (ATCC 51938)” value in assay [7] amounted to 12.5. For the same substance, the “MIC MRSA ATCC BAA-1556” value in assay [8] was 3.1 µg/mL. In addition, in the assay with B. cereus (ATCC-13061), the “Broad-spectrum activity B. cereus (ATCC-13061)” value amounted to 3.1. Further, the “Broad-spectrum activity B. subtilis (ATCC-6633)” value in the assay on B. subtilis (ATCC-6633) worked out at 1.5. For the same substance, in assay [9], the MIC K. pneumonia (ATCC 13883) turned out to be 50 µg/mL. Also, the “Broad-spectrum activity E. faecium (ATCC 700221)” value in assay [10] is given as 6.2. The “MIC P. aeruginosa ATCC 27883” value in assay [11] came out at 32 µg/mL. For the same substance, the “Broad-spectrum activity E. faecalis (ATCC 29212)” value in assay [12] was found to be 6.2. The MIC P. aeruginosa (ATCC BAA-1744) in assay [13] came to 25 µg/mL. In addition, in assay [14], the “Broad-spectrum activity E. faecium (ATCC 27270)” value turned out to be 3.1.
“c[arg-arg-arg-arg-dip-trp-dip] [IFX-101]” had an MIC P. aeruginosa (ATCC 10145) in assay [1] of 50 µg/mL. In addition, the “Broad-spectrum activity S. pneumoniae (ATCC 49619)” value in assay [2] was 50. Further, the MIC A. baumannii (ATCC BAA-1605) in [3] came to 12.5 µg/mL. The substance also returned an MIC E. coli (ATCC BAA-2452) against E. coli (ATCC BAA-2452) of 25 µg/mL. In assay [4], the MIC K. pneumonia (ATCC BAA-1705) is 25 µg/mL. The “MIC S. aureus ATCC 29213” value with S. aureus ATCC 29213 was found to be 3.1 µg/mL. In assay [5], the “Broad-spectrum activity E. faecalis (ATCC 51575)” value came to 12.5. In addition, the “MIC E. coli ATCC 25922” value in [6] was 12.5 µg/mL. The “Broad-spectrum activity S. pneumoniae (ATCC 51938)” value in assay [7] was 12.5. Further, the “MIC MRSA ATCC BAA-1556” value in assay [8] worked out at 3.1 µg/mL. For the same substance, the “Broad-spectrum activity B. cereus (ATCC-13061)” value in the assay on B. cereus (ATCC-13061) is recorded as 6.2. The “Broad-spectrum activity B. subtilis (ATCC-6633)” value with B. subtilis (ATCC-6633) is on record as 1.5. Moreover, the MIC K. pneumonia (ATCC 13883) in [9] is > 50 µg/mL. In [10], the “Broad-spectrum activity E. faecium (ATCC 700221)” value is 12.5. Moreover, the “MIC P. aeruginosa ATCC 27883” value in [11] was 25 µg/mL. Also, the “Broad-spectrum activity E. faecalis (ATCC 29212)” value in [12] was determined as 12.5. Moreover, the MIC P. aeruginosa (ATCC BAA-1744) in [13] is 25 µg/mL. The “Broad-spectrum activity E. faecium (ATCC 27270)” value in [14] is 3.1.
For the substance “c[arg-arg-arg-arg-dip-dip-dip] [IFX-067]”, in [1], the MIC P. aeruginosa (ATCC 10145) worked out at 50 µg/mL. For the same substance, the “Broad-spectrum activity S. pneumoniae (ATCC 49619)” value in assay [2] is listed as 25. For the same substance, in [3], the MIC A. baumannii (ATCC BAA-1605) turned out to be 12.5 µg/mL. This substance also registered an MIC E. coli (ATCC BAA-2452) in the assay on E. coli (ATCC BAA-2452) of 12.5 µg/mL. In addition, in assay [4], the MIC K. pneumonia (ATCC BAA-1705) stood at 25 µg/mL. Also, the “MIC S. aureus ATCC 29213” value against S. aureus ATCC 29213 was 3.1 µg/mL. For the same substance, the “Broad-spectrum activity E. faecalis (ATCC 51575)” value in [5] was found to be 6.2. The “MIC E. coli ATCC 25922” value in [6] worked out at 6.2 µg/mL. Besides, the “Broad-spectrum activity S. pneumoniae (ATCC 51938)” value in assay [7] is recorded as 12.5. For the same substance, in assay [8], the “MIC MRSA ATCC BAA-1556” value was found to be 1.5 µg/mL. The “Broad-spectrum activity B. cereus (ATCC-13061)” value with B. cereus (ATCC-13061) turned out to be 3.1. In addition, the “Broad-spectrum activity B. subtilis (ATCC-6633)” value in the assay with B. subtilis (ATCC-6633) was 1.5. For the same substance, the MIC K. pneumonia (ATCC 13883) in assay [9] is > 50 µg/mL. The “Broad-spectrum activity E. faecium (ATCC 700221)” value in assay [10] is 3.1. In [11], the “MIC P. aeruginosa ATCC 27883” value was found to be 12.5 µg/mL. In addition, in assay [12], the “Broad-spectrum activity E. faecalis (ATCC 29212)” value amounted to 6.2. For the same substance, the MIC P. aeruginosa (ATCC BAA-1744) in assay [13] worked out at 25 µg/mL. Besides, the “Broad-spectrum activity E. faecium (ATCC 27270)” value in assay [14] was 3.1.
